For 37 compounds, ED50 results are on record in patent US8269043B2, “Bicyclic aryl sphingosine 1-phosphate analogs” (Biogen Idec MA Inc., priority 2008, dated 2012).

The structures appear in SMILES notation. Bounds are passed on as bounds.

This test has as its system circulating lymphocytes. The test is described as follows: Lymphopenia assay: circulating lymphocytes after oral gavage. In kind it is in vivo. Particulars: Mus musculus, Lymphocyte, po, C57bl/6 male mice, oral gavage 0.5 and 5 mg/kg in 30% HPCD, blood 5 and 24 hours after administration. As to the method:
Measurement of circulating lymphocytes: Compounds were dissolved in 30% HPCD. Mice (C57bl/6 male, 6-10 week-old) were administered 0.5 and 5 mg/kg of a compound via oral gavage. 30% HPCD was included as a negative control.
Blood was collected from the retro-orbital sinus 5 and 24 hours after drug administration under short isoflurane anesthesia. Whole blood samples were subjected to hematology analysis. Peripheral lymphocyte counts were determined using an automated analyzer (HEMAVET™ 3700). Three mice were used to assess the lymphocyte depletion activity of each compound screened.
Compounds of formula (I) induced full lymphopenia at times as short as 3 hours or less to as long as 48 hours or more; for example, 4 to 36 hours, or 5 to 24 hours. In some cases, a compound of formula induced full lymphopenia at 5 hours and partial lymphopenia at 24 hours. The dosage required to induce lymphopenia can be in the range of, e.g., 0.001 mg/kg to 100 mg/kg; or 0.01 mg/kg to 10 mg/kg. The dosage can be 10 mg/kg or less, such as 5 mg/kg or less, 1 mg/kg or less, or 0.1 mg/kg or less
On to `C[C@](N)(CO)c1ccc2c(C(F)(F)F)c(O[C@H]3CC[C@@H](C4CCCCC4)CC3)ccc2c1` [Example 160, (R)-2-Amino-2-(6-(cis-4-cyclohexylcyclohexyloxy)-5-(trifluoromethyl)naphthalen-2-yl)propan-1-ol], for which the ED50 (in general, the dose that gives a 50% effect, or the effect in half of the subjects) is more than 5 mg/kg. With `C[C@](N)(CO)c1ccc2c(C(F)(F)F)c(O[C@H]3CC[C@H](C4CCCCC4)CC3)ccc2c1` [Example 163, (R)-2-Amino-2-(6-(trans-4-cyclohexylcyclohexyloxy)-5-(trifluoromethyl)naphthalen-2-yl)propan-1-ol], the ED50 is less than 0.5 mg/kg. `CC(C)[C@H]1CC[C@@H](Oc2ccc3cc([C@@](C)(N)CO)ccc3c2C(F)(F)F)CC1` [Example 167, (R)-2-Amino-2-(6-(cis-4-isopropylcyclohexyloxy)-5-(trifluoromethyl)naphthalen-2-yl)propan-1-ol] gave an ED50 of less than 0.5 mg/kg.

Take `CC(C)[C@H]1CC[C@H](Oc2ccc3cc([C@@](C)(N)CO)ccc3c2C(F)(F)F)CC1` [Example 168, (R)-2-Amino-2-(6-(trans-4-isopropylcyclohexyloxy)-5-(trifluoromethyl)naphthalen-2-yl)propan-1-ol]: the ED50 was less than 0.5 mg/kg. Next, `C[C@](N)(CO)c1ccc2cc(Oc3cccc(Cl)c3)ccc2c1` [Example 172, (R)-2-Amino-2-(6-(3-chlorophenoxy)naphthalen-2-yl)propan-1-ol]: 0.5 to 5 mg/kg; `C[C@](N)(CO)c1ccc2cc(Oc3ccc(Cl)cc3)ccc2c1` [Example 173, (R)-2-Amino-2-(6-(4-chlorophenoxy)naphthalen-2-yl)propan-1-ol]: 0.5 to 5 mg/kg. As to `C[C@](N)(CO)c1ccc2cc(Oc3cccc(Br)c3)ccc2c1` [Example 174, (R)-2-Amino-2-(6-(3-bromophenoxy)naphthalen-2-yl)propan-1-ol], the median effective dose (ED50) is more than 5 mg/kg. `C[C@](N)(CO)c1ccc2cc(Oc3cccc(OC(F)(F)F)c3)ccc2c1` [Example 175, (R)-2-Amino-2-(6-(3-(trifluoromethoxy)phenoxy)naphthalen-2-yl)propan-1-ol]: the ED50 lay in the range of 0.5 to 5 mg/kg.

`CCc1ccc(Oc2ccc3cc([C@@](C)(N)CO)ccc3c2)cc1` [Example 176, (R)-2-Amino-2-(6-(4-ethylphenoxy)naphthalen-2-yl)propan-1-ol] gave an ED50 of 0.5 to 5 mg/kg.

`CC(C)c1cccc(Oc2ccc3cc([C@@](C)(N)CO)ccc3c2)c1` [Example 177, (R)-2-Amino-2-(6-(3-isopropylphenoxy)naphthalen-2-yl)propan-1-ol] displayed a 50% effective dose (ED50) of more than 5 mg/kg. Compound `CC(C)Cc1ccc(Oc2ccc3cc([C@@](C)(N)CO)ccc3c2)cc1` [Example 178, (R)-2-Amino-2-(6-(4-isobutylphenoxy)naphthalen-2-yl)propan-1-ol] registered an ED50 of less than 0.5 mg/kg.

Turning to `CC(C)(C)c1ccc(Oc2ccc3cc([C@@](C)(N)CO)ccc3c2)cc1` [Example 179, (R)-2-Amino-2-(6-(4-tert-butylphenoxy)naphthalen-2-yl)propan-1-ol], the ED50 was in the range of 0.5 to 5 mg/kg. Regarding `Cc1ccc(Oc2ccc3cc([C@@](C)(N)CO)ccc3c2)cc1` [Example 180, (R)-2-Amino-2-(6-(p-tolyloxy)naphthalen-2-yl)propan-1-ol], the ED50 fell in the range of 0.5 to 5 mg/kg. Next, `C[C@](N)(CO)c1ccc2cc(Oc3ccc(C(F)(F)F)cc3)ccc2c1` [Example 181, (R)-2-Amino-2-(6-(4-(trifluoromethyl)phenoxy)naphthalen-2-yl)propan-1-ol]: more than 5 mg/kg; `CCc1ccccc1Oc1ccc2cc([C@@](C)(N)CO)ccc2c1` [Example 182, (R)-2-Amino-2-(6-(2-ethylphenoxy)naphthalen-2-yl)propan-1-ol]: 0.5 to 5 mg/kg; `C[C@](N)(CO)c1ccc2cc(Oc3ccc(F)c(F)c3)ccc2c1` [Example 183, (R)-2-Amino-2-(6-(3,4-difluorophenoxy)naphthalen-2-yl)propan-1-ol]: 0.5 to 5 mg/kg. `Cc1ccc(Oc2ccc3cc([C@@](C)(N)CO)ccc3c2)cc1C` [Example 184, (R)-2-Amino-2-(6-(3,4-dimethylphenoxy)naphthalen-2-yl)propan-1-ol] showed an ED50 of more than 5 mg/kg.

With `C[C@](N)(CO)c1ccc2cc(Oc3ccc(F)c(Cl)c3)ccc2c1` [Example 185, (R)-2-Amino-2-(6-(3-chloro-4-fluorophenoxy)naphthalen-2-yl)propan-1-ol], the ED50 was in the range of 0.5 to 5 mg/kg.

For the compound `C[C@](N)(CO)c1ccc2cc(Oc3cc(F)cc(F)c3)ccc2c1` [Example 186, (R)-2-Amino-2-(6-(3,5-difluorophenoxy)naphthalen-2-yl)propan-1-ol], the ED50 fell in the range of 0.5 to 5 mg/kg. For `Cc1cc(C)cc(Oc2ccc3cc([C@@](C)(N)CO)ccc3c2)c1` [Example 187, (R)-2-Amino-2-(6-(3,5-dimethylphenoxy)naphthalen-2-yl)propan-1-ol], the ED50 lay in the range of 0.5 to 5 mg/kg. With `CC(C)Oc1ccc(Oc2ccc3cc([C@@](C)(N)CO)ccc3c2)cc1` [Example 189, (R)-2-Amino-2-[6-(4-isopropoxy-phenoxy)-naphthalen-2-yl]-propan-1-ol], the ED50 was less than 0.5 mg/kg. For the compound `NC(CO)(CO)c1ccc2cc(Oc3cccc(C(F)(F)F)c3)ccc2c1` [Example 191, 2-Amino-2-(6-(3-(trifluoromethyl)phenoxy)naphthalen-2-yl)propane-1,3-diol], the ED50 was more than 5 mg/kg. `NC(CO)(CO)c1ccc2cc(Sc3cccc(OCc4ccccc4)c3)ccc2c1` [Example 192, 2-Amino-2-(6-(3-(benzyloxy)phenylthio)naphthalen-2-yl)propane-1,3-diol] gave an ED50 of less than 0.5 mg/kg. Next, `NC(CO)(CO)c1ccc2cc(Oc3cccc(OCc4ccccc4)c3)ccc2c1` [Example 194, 2-Amino-2-(6-(3-(benzyloxy)phenoxy)naphthalen-2-yl)propane-1,3-diol]: less than 0.5 mg/kg; `CCCCCOc1cccc(Oc2ccc3cc(C(N)(CO)CO)ccc3c2)c1` [Example 196, 2-Amino-2-(6-(3-(pentyloxy)phenoxy)naphthalen-2-yl)propane-1,3-diol]: less than 0.5 mg/kg; `NC(CO)(CO)c1ccc2cc(Oc3cccc(OCCc4ccccc4)c3)ccc2c1` [Example 197, 2-Amino-2-(6-(3-phenethoxyphenoxy)naphthalen-2-yl)propane-1,3-diol]: less than 0.5 mg/kg. Turning to `CC(C)CCOc1cccc(Oc2ccc3cc(C(N)(CO)CO)ccc3c2)c1` [Example 198, 2-Amino-2-(6-(3-(isopentyloxy)phenoxy)naphthalen-2-yl)propane-1,3-diol], the ED50 is 0.5 to 5 mg/kg.

Regarding `NC(CO)(CO)c1ccc2cc(Oc3cccc(OCC4CCCCC4)c3)ccc2c1` [Example 199, 2-Amino-2-(6-(3-(cyclohexylmethoxy)phenoxy)naphthalen-2-yl)propane-1,3-diol], the ED50 was less than 0.5 mg/kg. `NC(CO)(CO)c1ccc2cc(Oc3cccc(OCCCC(F)(F)F)c3)ccc2c1` [Example 200, 2-Amino-2-(6-(3-(4,4,4-trifluorobutoxy)phenoxy)naphthalen-2-yl)propane-1,3-diol] showed an ED50 of less than 0.5 mg/kg. On to `CC(N)(CCC(=O)O)c1ccc2c(C(F)(F)F)c(O[C@H]3CC[C@H](C(C)(C)C)CC3)ccc2c1` (stereo partly drawn) [Example 211, 4-amino-4-(6-(trans-4-tert-butylcyclohexyloxy)-5-(trifluoromethyl)naphthalen-2-yl) pentanoic acid], for which the ED50 was in the range of 0.5 to 5 mg/kg. `CC(C)(C)[C@H]1CC[C@H](Oc2ccc3cc([C@@](C)(N)CO)ccc3c2C2CC2)CC1` [Example 215, (R)-2-amino-2-(6-(trans-4-tert-butylcyclohexyloxy)-5-cyclopropylnaphthalen-2-yl)propan-1-ol]: the ED50 is less than 0.5 mg/kg. With `Cc1c(O[C@H]2CC[C@H](C(C)(C)C)CC2)ccc2cc([C@@](C)(N)CO)ccc12` [Example 217, (R)-2-amino-2-(6-(trans-4-tert-butylcyclohexyloxy)-5-methylnaphthalen-2-yl)propan-1-ol] the figure was less than 0.5 mg/kg; with `C=Cc1c(O[C@H]2CC[C@H](C(C)(C)C)CC2)ccc2cc([C@@](C)(N)CO)ccc12` [Example 219, (R)-2-amino-2-(6-(trans-4-tert-butylcyclohexyloxy)-5-vinylnaphthalen-2-yl)propan-1-ol], less than 0.5 mg/kg; with `CC(C)(C)[C@H]1CC[C@H](Oc2ccc3cc([C@@](C)(N)CO)ccc3c2-c2ccc(OC(F)(F)F)cc2)CC1` [Example 221, (R)-2-amino-2-(6-(trans-4-tert-butylcyclohexyloxy)-5-(4-(trifluoromethoxy)phenyl)naphthalen-2-yl)propan-1-ol], more than 5 mg/kg. `CC(C)(C)[C@H]1CC[C@H](Oc2ccc3cc([C@@](C)(N)CO)ccc3c2-c2ccc(S(C)(=O)=O)cc2)CC1` [Example 223, (R)-2-amino-2-(6-(trans-4-tert-butylcyclohexyloxy)-5-(4-(methylsulfonyl)phenyl)naphthalen-2-yl)propan-1-ol]: the ED50 was more than 5 mg/kg.

On to `CC(C)(C)[C@H]1CC[C@H](Oc2ccc3cc([C@@](C)(N)CO)ccc3c2-c2cncnc2)CC1` [Example 225, (R)-2-amino-2-(6-(trans-4-tert-butylcyclohexyloxy)-5-(pyrimidin-5-yl)naphthalen-2-yl)propan-1-ol], for which the ED50 was more than 5 mg/kg.

Consider `CCOc1ccc(-c2c(O[C@H]3CC[C@H](C(C)(C)C)CC3)ccc3cc([C@@](C)(N)CO)ccc23)cc1` [Example 227, (R)-2-amino-2-(6-(trans-4-tert-butylcyclohexyloxy)-5-(4-ethoxyphenyl)naphthalen-2-yl)propan-1-ol], for which the ED50 lay in the range of 0.5 to 5 mg/kg.
